Data published in patent publication US20190185518A9, “WARHEAD-CONTAINING PEPTIDOMIMETIC MACROCYCLES AS MODULATORS OF BFL-1” (AILERON Therapeutics, Inc., priority 2017, published 2019).
pKi: −log10 of the molar value. Starred links: 1 amine or outer side, 2 acyl side, 3 side chain; linkers in the order of their positions; H or OH if unused. Positions of bridges follow the written chain, without caps; N, C: chain ends. Non-standard residues stand in square brackets, D forms with d. Residues, ends and D or L forms follow the SMILES beside them. Phe(4-F) = N[C@@H](Cc1ccc(F)cc1)C(=O)O; X1 = CC(C)CCC[C@H](N[*:1])C(=O)[*:2]; R8 = C=CCCCCCC[C@@](C)(N)C(=O)O; hLeu = CC(C)CC[C@H](N)C(=O)O; S5 = C=CCCC[C@](C)(N)C(=O)O; Ac6c = NC1(C(=O)O)CCCCC1; Ac5c = NC1(C(=O)O)CCCC1; Aib = CC(C)(N)C(=O)O

biological target: Bcl-xL (Homo sapiens, UniProt Q07817); test: Ki determination for Bcl-xL (BCL-2 family binding spectrum); conditions: read-out: Ki BCL-XL
Text: To assess the binding and affinity of compounds that antagonize the interaction between a peptide and an acceptor protein, a fluorescence polarization assay (FPA) utilizing a fluoresceinated peptidomimetic macrocycle derived from a peptidomimetic precursor sequence is used, for example. The FPA technique measures the molecular orientation and mobility using polarized light and fluorescent tracer. […] A compound that antagonizes the interaction between the fluoresceinated peptidomimetic macrocycle and an acceptor protein will be detected in a competitive binding FPA experiment.
For example, putative antagonist compounds (1 nM to 1 mM) and a fluoresceinated peptidomimetic macrocycle (25 nM) are incubated with the acceptor protein (50 nM) in binding buffer (140 mM NaCl, 50 mM Tris-HCL, pH 7.4) for 30 minutes at room temperature. Antagonist binding activity is measured, for example, by fluorescence polarization on a luminescence spectrophotometer (e.g. Perkin-Elmer LS50B). Kd values may be determined by nonlinear regression analysis using, for example, Graphpad Prism software (GraphPad Software, Inc., San Diego, Calif.).

Chain of Bcl-xL (Q07817 whole entry, species assumed): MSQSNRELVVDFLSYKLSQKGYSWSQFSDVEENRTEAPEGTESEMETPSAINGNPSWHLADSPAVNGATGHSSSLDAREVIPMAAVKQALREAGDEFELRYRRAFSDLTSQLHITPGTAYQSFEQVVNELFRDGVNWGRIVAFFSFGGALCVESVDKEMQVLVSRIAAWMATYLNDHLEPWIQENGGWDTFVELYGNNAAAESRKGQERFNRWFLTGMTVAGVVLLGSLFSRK

Row | SMILES | pKi
1 | CC[C@H](C)[C@H](NC(C)=O)C(=O)N[C@@H](Cc1c[nH]c2ccccc12)C(=O)N[C@H](C(=O)N[C@@H](C)C(=O)N[C@@H](CCC(N)=O)C(=O)N[C@@H](C)C(=O)N[C@@H](CC(C)C)C(=O)N[C@@H](CCCNC(=N)N)C(=O)N[C@]1(C)CCCCCCC=CCCC[C@@](C)(C(=O)N[C@@H](Cc2ccc(O)cc2)C(=O)N[C@@H](CC(C)C)C(=O)N[C@@H](C)C(N)=O)NC(=O)[C@H](CC(N)=O)NC(=O)[C@H](Cc2ccccc2)NC(=O)[C@H](C)NC(=O)[C@H](CC(=O)O)NC(=O)CNC(=O)[C@H]([C@@H](C)CC)NC1=O)[C@@H](C)CC [compound 1755] (Ac-IWIAQALR[R8]IGDAFN[S5]YLA-NH2; staple 9-16) | 8.05
2 | CC[C@H](C)[C@H](NC(C)=O)C(=O)N[C@@H](Cc1c[nH]c2ccccc12)C(=O)N[C@H](C(=O)N[C@@H](C)C(=O)N[C@@H](CCC(N)=O)C(=O)N[C@@H](C)C(=O)N[C@@H](CC(C)C)C(=O)N[C@@H](CCCNC(=N)N)C(=O)N[C@]1(C)CCCCCCC=CCCC[C@@](C)(C(=O)N[C@@H](Cc2ccc(O)cc2)C(=O)N[C@@H](Cc2ccc(O)cc2)C(=O)N[C@@H](C)C(N)=O)NC(=O)[C@H](CC(N)=O)NC(=O)[C@H](Cc2ccccc2)NC(=O)[C@H](C)NC(=O)[C@H](CC(=O)O)NC(=O)[C@H](C)NC(=O)[C@H]([C@@H](C)CC)NC1=O)[C@@H](C)CC [compound 1665] (Ac-IWIAQALR[R8]IADAFN[S5]YYA-NH2; staple 9-16) | 8.11
3 | CC[C@H](C)[C@H](NC(C)=O)C(=O)N[C@@H](Cc1c[nH]c2ccccc12)C(=O)N[C@H](C(=O)N[C@@H](C)C(=O)N[C@@H](C)C(=O)N[C@@H](C)C(=O)N[C@@H](CC(C)C)C(=O)N[C@@H](CCCNC(=N)N)C(=O)N[C@]1(C)CCCCCCC=CCCC[C@@](C)(C(=O)N[C@@H](Cc2ccc(O)cc2)C(=O)N[C@@H](Cc2ccc(O)cc2)C(=O)N[C@@H](C)C(N)=O)NC(=O)[C@H](CC(=O)O)NC(=O)[C@H](Cc2ccccc2)NC(=O)[C@H](C)NC(=O)[C@H](CC(=O)O)NC(=O)CNC(=O)[C@H]([C@@H](C)CC)NC1=O)[C@@H](C)CC [compound 1748] (Ac-IWIAAALR[R8]IGDAFD[S5]YYA-NH2; staple 9-16) | 7.59
4 | CC[C@H](C)[C@H](NC(C)=O)C(=O)N[C@@H](Cc1c[nH]c2ccccc12)C(=O)N[C@H](C(=O)N[C@@H](C)C(=O)N[C@@H](CCC(N)=O)C(=O)N[C@@H](C)C(=O)N[C@@H](C)C(=O)N[C@@H](CCCNC(=N)N)C(=O)N[C@]1(C)CCCCCCC=CCCC[C@@](C)(C(=O)N[C@@H](Cc2ccc(O)cc2)C(=O)N[C@@H](Cc2ccc(O)cc2)C(=O)N[C@@H](C)C(N)=O)NC(=O)[C@H](CC(N)=O)NC(=O)[C@H](C)NC(=O)[C@H](C)NC(=O)[C@H](CC(=O)O)NC(=O)CNC(=O)[C@H]([C@@H](C)CC)NC1=O)[C@@H](C)CC [compound 1664] (Ac-IWIAQAAR[R8]IGDAAN[S5]YYA-NH2; staple 9-16) | 6.81
5 | CC[C@H](C)[C@H](NC(C)=O)C(=O)N[C@@H](Cc1c[nH]c2ccccc12)C(=O)N[C@H](C(=O)N[C@@H](C)C(=O)N[C@@H](CCC(N)=O)C(=O)N[C@@H](C)C(=O)N[C@@H](CC(C)C)C(=O)N[C@@H](CCCNC(=N)N)C(=O)N[C@]1(C)CCCCCCC=CCCC[C@@](C)(C(=O)N[C@@H](Cc2ccc(O)cc2)C(=O)N[C@@H](Cc2ccc(O)cc2)C(=O)N[C@@H](C)C(N)=O)NC(=O)[C@H](C)NC(=O)[C@H](Cc2ccccc2)NC(=O)[C@H](CCC(=O)O)NC(=O)[C@H](CC(=O)O)NC(=O)CNC(=O)[C@H]([C@@H](C)CC)NC1=O)[C@@H](C)CC [compound 1643] (Ac-IWIAQALR[R8]IGDEFA[S5]YYA-NH2; staple 9-16) | 7.81
6 | CC[C@H](C)[C@H](NC(C)=O)C(=O)N[C@@H](Cc1c[nH]c2ccccc12)C(=O)N[C@H](C(=O)N[C@@H](C)C(=O)N[C@@H](CCC(N)=O)C(=O)N[C@@H](C)C(=O)N[C@@H](CC(C)C)C(=O)N[C@@H](CCCNC(=N)N)C(=O)N[C@]1(C)CCCCCCC=CCCC[C@@](C)(C(=O)N[C@@H](Cc2ccc(O)cc2)C(=O)N[C@@H](Cc2ccc(O)cc2)C(=O)NC(C)(C)C(N)=O)NC(=O)[C@H](CC(N)=O)NC(=O)[C@H](Cc2ccccc2)NC(=O)[C@H](C)NC(=O)[C@H](CC(=O)O)NC(=O)CNC(=O)[C@H]([C@@H](C)CC)NC1=O)[C@@H](C)CC [compound 1770] (Ac-IWIAQALR[R8]IGDAFN[S5]YY[Aib]-NH2; staple 9-16) | < 6.00
7 | CC[C@H](C)[C@H](NC(C)=O)C(=O)N[C@@H](CC(=O)O)C(=O)N[C@H](C(=O)N[C@@H](C)C(=O)N[C@@H](C)C(=O)N[C@@H](C)C(=O)N[C@@H](CC(C)C)C(=O)N[C@@H](CCCNC(=N)N)C(=O)N[C@]1(C)CCCCCCC=CCCC[C@@](C)(C(=O)N[C@@H](Cc2ccc(O)cc2)C(=O)N[C@@H](Cc2ccc(O)cc2)C(=O)N[C@@H](C)C(N)=O)NC(=O)[C@H](CC(N)=O)NC(=O)[C@H](Cc2ccccc2)NC(=O)[C@H](C)NC(=O)[C@H](CC(=O)O)NC(=O)CNC(=O)[C@H]([C@@H](C)CC)NC1=O)[C@@H](C)CC [compound 1725] (Ac-IDIAAALR[R8]IGDAFN[S5]YYA-NH2; staple 9-16) | 7.44
8 | CC[C@H](C)[C@H](NC(=O)[C@H](Cc1c[nH]c2ccccc12)NC(=O)[C@H](C)NC(C)=O)C(=O)N[C@@H](C)C(=O)N[C@@H](C)C(=O)N[C@@H](C)C(=O)N[C@@H](CC(C)C)C(=O)N[C@@H](CCCNC(=N)N)C(=O)N[C@]1(C)CCCCCCC=CCCC[C@@](C)(C(=O)N[C@@H](C)C(=O)N[C@@H](Cc2ccc(F)cc2)C(=O)N[C@@H](C)C(N)=O)NC(=O)[C@H](CC(N)=O)NC(=O)[C@H](Cc2ccccc2)NC(=O)[C@H](C)NC(=O)[C@H](CC(=O)O)NC(=O)CNC(=O)[C@H](CCC(C)C)NC1=O [compound 1780] (Ac-AWIAAALR[R8][hLeu]GDAFN[S5]A[Phe(4-F)]A-NH2; staple 9-16) | 8.05
9 | CC[C@H](C)[C@H](NC(C)=O)C(=O)N[C@@H](Cc1c[nH]c2ccccc12)C(=O)N[C@@H](Cc1ccccc1)C(=O)N[C@@H](C)C(=O)N[C@@H](CCC(N)=O)C(=O)N[C@@H](C)C(=O)N[C@@H](CC(C)C)C(=O)N[C@@H](CCCNC(=N)N)C(=O)N[C@]1(C)CCCCCCC=CCCC[C@@](C)(C(=O)N[C@@H](Cc2ccc(O)cc2)C(=O)N[C@@H](Cc2ccc(O)cc2)C(=O)N[C@@H](C)C(N)=O)NC(=O)[C@H](CC(N)=O)NC(=O)[C@H](Cc2ccccc2)NC(=O)[C@H](CCC(N)=O)NC(=O)[C@H](CC(=O)O)NC(=O)CNC(=O)[C@H]([C@@H](C)CC)NC1=O [compound 1672] (Ac-IWFAQALR[R8]IGDQFN[S5]YYA-NH2; staple 9-16) | 7.59
10 | CC[C@H](C)[C@H](NC(C)=O)C(=O)N[C@@H](Cc1c[nH]c2ccccc12)C(=O)NC1(C(=O)N[C@@H](C)C(=O)N[C@@H](CCC(N)=O)C(=O)N[C@@H](C)C(=O)N[C@@H](CC(C)C)C(=O)N[C@@H](CCCNC(=N)N)C(=O)N[C@]2(C)CCCCCCC=CCCC[C@@](C)(C(=O)N[C@@H](Cc3ccc(O)cc3)C(=O)N[C@@H](Cc3ccc(O)cc3)C(=O)N[C@@H](C)C(N)=O)NC(=O)[C@H](CC(N)=O)NC(=O)[C@H](Cc3ccccc3)NC(=O)[C@H](C)NC(=O)[C@H](CC(=O)O)NC(=O)CNC(=O)[C@H]([C@@H](C)CC)NC2=O)CCCCC1 [compound 1714] (Ac-IW[Ac6c]AQALR[R8]IGDAFN[S5]YYA-NH2; staple 9-16) | 8.11
11 | CC[C@H](C)[C@H](NC(C)=O)C(=O)N[C@@H](Cc1c[nH]c2ccccc12)C(=O)N[C@H](C(=O)N[C@@H](C)C(=O)N[C@@H](CCC(N)=O)C(=O)N[C@@H](C)C(=O)N[C@@H](CC(C)C)C(=O)N[C@@H](CCCNC(=N)N)C(=O)N[C@]1(C)CCCCCCC=CCCC[C@@](C)(C(=O)N[C@@H](Cc2ccc(O)cc2)C(=O)N[C@@H](Cc2ccc(O)cc2)C(=O)N[C@@H](C)C(N)=O)NC(=O)[C@H](CC(N)=O)NC(=O)[C@H](Cc2ccccc2)NC(=O)[C@H](CCC(N)=O)NC(=O)[C@H](CC(=O)O)NC(=O)CNC(=O)[C@H](Cc2ccccc2)NC1=O)[C@@H](C)CC [compound 1670] (Ac-IWIAQALR[R8]FGDQFN[S5]YYA-NH2; staple 9-16) | 7.59
12 | CC[C@H](C)[C@H](NC(C)=O)C(=O)N[C@@H](Cc1c[nH]c2ccccc12)C(=O)N[C@H](C(=O)N[C@@H](C)C(=O)N[C@@H](CCC(N)=O)C(=O)N[C@@H](C)C(=O)N[C@@H](CC(C)C)C(=O)N[C@@H](CCCNC(=N)N)C(=O)N[C@]1(C)CCCCCCC=CCCC[C@@](C)(C(=O)N[C@@H](Cc2ccc(O)cc2)C(=O)N[C@@H](Cc2ccc(O)cc2)C(=O)N[C@@H](C)C(N)=O)NC(=O)[C@H](CC(N)=O)NC(=O)[C@H](Cc2ccccc2)NC(=O)[C@H](C)NC(=O)[C@H](CC(=O)O)NC(=O)CNC(=O)[C@H](CCCC(C)C)NC1=O)[C@@H](C)CC [compound 1702] (Ac-IWIAQALR[R8][X1]GDAFN[S5]YYA-NH2; staple 9-16) | 8.40
13 | CC[C@H](C)[C@H](NC(C)=O)C(=O)N[C@@H](Cc1c[nH]c2ccccc12)C(=O)NC1(C(=O)N[C@@H](C)C(=O)N[C@@H](CCC(N)=O)C(=O)N[C@@H](C)C(=O)N[C@@H](CC(C)C)C(=O)N[C@@H](CCCNC(=N)N)C(=O)N[C@]2(C)CCCCCCC=CCCC[C@@](C)(C(=O)N[C@@H](Cc3ccc(O)cc3)C(=O)N[C@@H](Cc3ccc(O)cc3)C(=O)N[C@@H](C)C(N)=O)NC(=O)[C@H](CC(N)=O)NC(=O)[C@H](Cc3ccccc3)NC(=O)[C@H](C)NC(=O)[C@H](CC(=O)O)NC(=O)CNC(=O)[C@H]([C@@H](C)CC)NC2=O)CCCC1 [compound 1715] (Ac-IW[Ac5c]AQALR[R8]IGDAFN[S5]YYA-NH2; staple 9-16) | 8.08
